Experimental data as given in a melting point compilation (Tetko et al.; mined from patent text by program, amines drawn as free bases though some values may be those of a salt).

Point of comparison: `N#Cc1ccc(NC2CCN(Cc3cccc(C(F)(F)F)c3)CC2)nc1`, melting point 112 °C. Against it:
- COc1ccc(S)c(C(=O)O)c1 — higher, 173 to 178 °C
- CCC1(c2cccs2)NC(=O)NC1=O (stereo unspecified) — higher, 173 to 174 °C
- COC(=O)Cc1ccc(C(=O)O)cc1 — higher, 134 to 136 °C
- COC(=O)c1nc2nc(C)c(C)c(S)n2n1 — higher, 206 to 207 °C
- O=c1cnn(-c2cc(Cl)c(Cc3ccc(Cc4ccccc4)cc3)c(Cl)c2)c(=O)[nH]1 — higher, 164 to 165 °C
- CCCn1c(=O)c2[nH]c(/C=C/c3ccc(OC)c4ccccc34)nc2n(CCC)c1=O — higher, > 280 °C
- O=C1C(Cc2ccccc2)NC(=S)N1c1ccccc1 (stereo unspecified) — higher, 187 to 189 °C
- CCCCCCC(=O)N[C@H](CO)C(=O)OCc1ccccc1 — lower, 62 to 66 °C
- O=Cc1csc(Nc2ccc(F)cc2)n1 — higher, 152 to 155 °C
- CCCCN(Cc1ccc(-c2ccccc2-c2nc(=O)o[nH]2)cc1)c1ncccc1C(=O)OCC — higher, 146 to 147 °C
- CC(C)(C)c1ccc(CC[C@H](CC2CCCCC2)O[Si](C)(C)C(C)(C)C)cc1NC(=O)CC1c2ccccc2Oc2ccccc21 — higher, 173 to 174 °C
- COc1ccc(-c2cc(N3CCN(c4ccccc4)CC3)nc(C)c2-c2ccc(OC)cc2)cc1 — higher, 173 to 174 °C
- Cc1cc2n[nH]c(=O)n2nc1-c1ccc(C#N)cc1 — higher, > 300 °C
- CC(=O)CN1CCc2ccc(C(=O)CCC(=O)N3CCC(c4ccc(Cl)cc4)CC3)cc2CC1 — higher, 119 to 120 °C
- O=C1Cc2cccc(CNC(=O)C3Cc4ccccc4N3S(=O)(=O)c3ccc(-c4cccc(C(F)(F)F)c4)cc3)c2N1 (stereo unspecified) — lower, 50 °C
- N#Cc1ccc(C=CC(=O)N2CCc3c([nH]c4ccccc34)C2c2ccc3c(c2)OCO3)cc1 (stereo unspecified) — higher, 167 °C
- CCOC(=O)c1ccc(Nc2ncccc2NS(=O)(=O)c2ccc(OC)cc2)cc1 — higher, 172 to 173 °C
- COC(=O)c1cc(C(=O)Nc2ccncc2)c2cc(Cc3ccc(F)cc3)cnc2c1O — higher, 266 to 267 °C
- CN1C(=O)CNC2=C1C=NC(Cl)=CN2c1ccccc1 — lower, 105 to 107 °C
- COCCc1nc2ccccn2c(=O)c1-c1ccc(Cl)cc1 — higher, 116 to 118 °C
- O=C(O)c1cccc2c1CCc1ccc(O)cc1S2 — higher, 219 to 221 °C
- Cc1ccc(CNc2nc(Cl)nc(OCC(F)(F)F)n2)o1 — lower, 70 to 72 °C
- N#Cc1ccc(-c2csc(NCCO)n2)cc1 — lower, 80 to 82 °C
- N#CN1CCN(c2n[nH]c3ccccc23)CC1 — higher, 120 to 122 °C
- CCOc1ccc(OCC(C)(NS(=O)(=O)Cc2ccccc2)C(=O)N2CCOCC2)cc1 (stereo unspecified) — lower, 109 to 111 °C
- CC1CS/C(=N/N=C\c2ccc(-c3ncn(-c4ccc(OC(F)(F)F)cc4)n3)cc2)N(c2ccccc2C(C)C)C1 (stereo unspecified) — higher, 186 to 190 °C
- COc1ccc(OC)c2c1C(=O)C=C(SCCCCCCCCCCC(=O)NCC(C)C)C2=O — lower, 74 to 75 °C
- CCc1ccc(-c2nc3ccccc3[nH]2)cc1 — higher, 258 °C
- CCC1(C)CC(=O)C(C(=O)Nc2cc(C(F)(F)F)cc(C(F)(F)F)c2)C(=O)C1 (stereo unspecified) — lower, 72 to 73 °C
- CC(C)c1ccc(-c2ccc(/C=C/C(=O)O)s2)cc1 — higher, 216 to 219 °C
- CCCc1c(OCCCCCOc2ccc(C(=O)Cc3ccccc3C(=O)O)cc2CCC(=O)O)ccc2c1OCCC2=O — higher, 178 to 182 °C
- Cn1c(C(F)(F)F)cc(=O)n(-c2ccc(Cl)c(CO)c2)c1=O — higher, 192 to 194 °C
- CC(=O)Nc1cc(C(C)(C)C)c(SC2=C(O)CC(CCc3ccc(O)cc3)(C3CCCC3)OC2=O)cc1C (racemic) — higher, 181 °C
- CON=CCOc1ccccc1S(N)(=O)=O — lower, 103 to 105 °C
- CCn1c(=O)c2[nH]c(/C=C/c3cccc(F)c3)nc2n(CC)c1=O — higher, > 270 °C
- CCC1c2cccn2-c2ccccc2N1S(=O)(=O)c1ccc(O)c(C)c1 (stereo unspecified) — higher, 171 to 173 °C
- CCCCOC(=O)c1ccc(OC(=O)C(=O)Oc2ccc(C(=O)OCCCC)cc2)cc1 — lower, 100 to 102 °C
- O=C1OCN(C(=O)OCc2ccccc2)[C@H]1CCCl — lower, 75 to 77 °C
- Cn1nc(-c2cc(C(=O)O)c(Cl)cc2F)c(Cl)c1C(F)(F)F — higher, 179 to 181 °C
- COC1CCN(c2cccc(-c3cnc4[nH]cc(C(=O)C(C)(C)C)c4n3)c2)C1 (stereo unspecified) — higher, 194 to 195 °C
- Clc1ccc(C(c2ccccc2)(c2ccccc2)n2ccnc2)cc1 — higher, 125 °C
- COc1cc2[nH]cc(-c3cc4c(Cl)c(F)cnc4[nH]3)c2nc1OC — higher, 283 to 284 °C
- CCn1cc(C(=O)O)c(=O)cc1-c1ccc(OC)cc1 — higher, 215 to 217 °C
- O=C(O)c1cccc(-c2nc(-c3ccc(Cl)cc3)cs2)c1 — higher, 265 to 266 °C
- N#Cc1c(SC(F)(F)F)c(N)n(-c2c(Cl)cc(C(F)(F)F)cc2Cl)c1C#N — higher, 175 to 177 °C
- NC(=O)C1Oc2cc(Cl)c(S(=O)(=O)c3ccc(Cl)cc3)cc2O1 (stereo unspecified) — higher, 240 to 242 °C
- O=C(Nc1ccc(-n2nc(C3CC3)cc2C2CC2)nc1)c1ccncc1F — higher, 192 to 195 °C
- O=C1CC(c2cccc(Cl)c2)c2cc(C(=O)c3ccc([N+](=O)[O-])cc3)ccc2N1 (stereo unspecified) — higher, 147 °C
- COc1ccc(C(=O)Nc2cc(C)cc(C)c2)cc1NC(=S)Nc1cccc(C)c1 — higher, 188 to 189 °C
- Nc1nc(N)c2[nH]c(C3OC(CO)C(O)C3O)nc2n1 (stereo unspecified) — higher, 234 to 237 °C
- CNC(=C[N+](=O)[O-])NCCCSc1nccc(NC(N)=NCC(F)(F)F)n1 — higher, 189 to 191 °C
- COc1c(NC(=O)c2ccc(Br)cc2)cccc1[N+](=O)[O-] — higher, 162 to 163 °C
- CC(=CC(C)(O)c1ccc(Cl)cc1Cl)n1cncn1 (stereo unspecified) — lower, 101 °C
- COC1OC(CO)C(O)C(OC)C1O (stereo unspecified) — lower, 56 to 58 °C
- CCCCN(CCCC)c1ccc(C=C2C(=C(C#N)C#N)c3ccccc3C2=C(C#N)C#N)c(OC)c1 — higher, 195 to 198 °C
- O=C(O)Cn1c(=O)c(=O)[nH]c2cc(Cl)ccc21 — higher, 318 to 319 °C
- CC1(C)CCC(C)(C)C1C(=O)O — higher, 114 °C
- O=C1Cc2ccccc2Oc2ccccc2C1 — lower, 86 °C
- CCCCCS(=O)(=O)NC(=O)/C=C/c1cc(C2CC2)nn1Cc1ccc(C(F)(F)F)cc1Cl — higher, 139 to 140 °C
- CC1CN(c2n[nH]c(-c3ccc(Cl)cc3)c2-c2ccncc2)CCN1 (stereo unspecified) — higher, 235 to 237 °C
- COc1ccccc1N1CCN(CCc2[nH]c(=O)[nH]c2-c2ccc(F)cc2)CC1 — higher, 213 to 214 °C
- CNc1cc(F)ccc1C(=O)CSC — lower, 61.5 to 63 °C
- CCN(CC)CC(=O)Nc1ccc(C2=NN=C(C)Cc3cc4c(cc32)OCO4)cc1 — higher, 157 to 158 °C
- CNC(=O)CN(c1ccc(Cl)cc1Cc1c(F)cccc1F)S(=O)(=O)c1ccc(OC)c(OC)c1 — lower, 92.9 °C
- Cc1cc(N2CCOCC2)nc(N)c1N — lower, 97 to 108 °C
- CC[C@H](CO)Nc1nc(NCc2ccccc2)c2nnn(C(C)C)c2n1 — higher, 115 to 118 °C
- O=C(CCN1CCCC1)Nc1ccc2[nH]c3ccc(NC(=O)CCN4CCCC4)cc3c(=O)c2c1 — higher, > 320 °C
- CCOC(=O)C1=C(COCC(N)=O)NC(C)=C(C(=O)OC)C1c1ccccc1Cl (stereo unspecified) — higher, 127 to 128 °C
- CN(Cc1ccco1)Cn1cc(C#N)c(-c2cccc(Cl)c2Cl)c1 — lower, 79 to 80 °C
- CCOC(=O)N1CCC2(CC1)OC(c1ccccc1)c1ccccc12 (stereo unspecified) — higher, 115 to 119 °C
